Legend:
Test in all cases: relative viability (nuclei count vs DMSO), 5 days (fraction); higher = more cells survive
VX-11e + Pictilisib = compound: CC1=CN=C(N=C1C2=CNC(=C2)C(=O)N[C@H](CO)C3=CC(=CC=C3)Cl)NC4=C(C=C(C=C4)F)Cl [VX-11e] + CS(=O)(=O)N1CCN(Cc2cc3nc(-c4cccc5[nH]ncc45)nc(N4CCOCC4)c3s2)CC1 [Pictilisib] (partner 1 µM)
How it was run: (§1)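 Lung cancer cell lines were seeded in 1536-well plates and dosed by pin tool the next day, with either a single drug or a fixed anchor-drug dose combined with five library-drug doses (not always all listed) spaced in √10 steps. Five days later, one step fixed the cells and stained their nuclei (final 0.05% Triton X-100, 1% formaldehyde, 1 ug/ml Hoechst), and nuclei were counted on 4× images. Relative viability is the nuclei count in treated wells divided by the count in vehicle wells, and each value is the median of duplicate plates.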

VX-11e + Decitabine = compound: CC1=CN=C(N=C1C2=CNC(=C2)C(=O)N[C@H](CO)C3=CC(=CC=C3)Cl)NC4=C(C=C(C=C4)F)Cl [VX-11e] + Nc1ncn([C@H]2C[C@H](O)[C@@H](CO)O2)c(=O)n1 [Decitabine] (partner 2 µM)
How it was run: as §1

VX-11e + Crizotinib = compound: CC1=CN=C(N=C1C2=CNC(=C2)C(=O)N[C@H](CO)C3=CC(=CC=C3)Cl)NC4=C(C=C(C=C4)F)Cl [VX-11e] + C[C@@H](Oc1cc(-c2cnn(C3CCNCC3)c2)cnc1N)c1c(Cl)ccc(F)c1Cl [Crizotinib] (partner 1 µM)
How it was run: as §1

VX-11e + Alpelisib = compound: CC1=CN=C(N=C1C2=CNC(=C2)C(=O)N[C@H](CO)C3=CC(=CC=C3)Cl)NC4=C(C=C(C=C4)F)Cl [VX-11e] + Cc1nc(NC(=O)N2CCC[C@H]2C(N)=O)sc1-c1ccnc(C(C)(C)C(F)(F)F)c1 [Alpelisib] (partner 2 µM)
How it was run: as §1

VX-11e + Phenformin = compound: CC1=CN=C(N=C1C2=CNC(=C2)C(=O)N[C@H](CO)C3=CC(=CC=C3)Cl)NC4=C(C=C(C=C4)F)Cl [VX-11e] + N=C(N)NC(=N)NCCc1ccccc1 [Phenformin] (partner 250 µM)
How it was run: as §1

VX-11e + Lapatinib = compound: CC1=CN=C(N=C1C2=CNC(=C2)C(=O)N[C@H](CO)C3=CC(=CC=C3)Cl)NC4=C(C=C(C=C4)F)Cl [VX-11e] + CS(=O)(=O)CCNCc1ccc(-c2ccc3ncnc(Nc4ccc(OCc5cccc(F)c5)c(Cl)c4)c3c2)o1 [Lapatinib] (partner 2 µM)
How it was run: as §1

VX-11e + Olaparib = compound: CC1=CN=C(N=C1C2=CNC(=C2)C(=O)N[C@H](CO)C3=CC(=CC=C3)Cl)NC4=C(C=C(C=C4)F)Cl [VX-11e] + O=C(c1cc(Cc2n[nH]c(=O)c3ccccc23)ccc1F)N1CCN(C(=O)C2CC2)CC1 [Olaparib] (partner 8 µM)
How it was run: as §1

VX-11e + Navitoclax = compound: CC1=CN=C(N=C1C2=CNC(=C2)C(=O)N[C@H](CO)C3=CC(=CC=C3)Cl)NC4=C(C=C(C=C4)F)Cl [VX-11e] + CC1(C)CCC(c2ccc(Cl)cc2)=C(CN2CCN(c3ccc(C(=O)NS(=O)(=O)c4ccc(N[C@H](CCN5CCOCC5)CSc5ccccc5)c(S(=O)(=O)C(F)(F)F)c4)cc3)CC2)C1 [Navitoclax] (partner 0.5 µM)
How it was run: as §1

VX-11e + Foretinib = compound: CC1=CN=C(N=C1C2=CNC(=C2)C(=O)N[C@H](CO)C3=CC(=CC=C3)Cl)NC4=C(C=C(C=C4)F)Cl [VX-11e] + COc1cc2c(Oc3ccc(NC(=O)C4(C(=O)Nc5ccc(F)cc5)CC4)cc3F)ccnc2cc1OCCCN1CCOCC1 [Foretinib] (partner 0.25 µM)
How it was run: as §1

VX-11e + Linsitinib = compound: CC1=CN=C(N=C1C2=CNC(=C2)C(=O)N[C@H](CO)C3=CC(=CC=C3)Cl)NC4=C(C=C(C=C4)F)Cl [VX-11e] + C[C@]1(O)C[C@@H](c2nc(-c3ccc4ccc(-c5ccccc5)nc4c3)c3c(N)nccn32)C1 [Linsitinib] (partner 1 µM)
How it was run: as §1

VX-11e = compound: CC1=CN=C(N=C1C2=CNC(=C2)C(=O)N[C@H](CO)C3=CC(=CC=C3)Cl)NC4=C(C=C(C=C4)F)Cl [VX-11e]
How it was run: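 On vehicle-anchored 1536-well plates, lung cancer cell lines held overnight at 37 °C were pinned with five library-drug doses (not always all listed) spaced by √10. With no medium change over 5 days, they were then fixed, permeabilised and Hoechst-stained in one step and imaged at 4×. MetaXpress counted nuclei, and viability is the median across plates of treated-well over vehicle-well nuclei. Acceptance needed control CV below 25% and at least one doubling.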

VX-11e + Luminespib = compound: CC1=CN=C(N=C1C2=CNC(=C2)C(=O)N[C@H](CO)C3=CC(=CC=C3)Cl)NC4=C(C=C(C=C4)F)Cl [VX-11e] + CCNC(=O)c1noc(-c2cc(C(C)C)c(O)cc2O)c1-c1ccc(CN2CCOCC2)cc1 [Luminespib] (partner 0.01 µM)
How it was run: as §1

VX-11e + Dasatinib = compound: CC1=CN=C(N=C1C2=CNC(=C2)C(=O)N[C@H](CO)C3=CC(=CC=C3)Cl)NC4=C(C=C(C=C4)F)Cl [VX-11e] + Cc1nc(Nc2ncc(C(=O)Nc3c(C)cccc3Cl)s2)cc(N2CCN(CCO)CC2)n1 [Dasatinib] (partner 0.075 µM)
How it was run: as §1

VX-11e + OSI-027 = compound: CC1=CN=C(N=C1C2=CNC(=C2)C(=O)N[C@H](CO)C3=CC(=CC=C3)Cl)NC4=C(C=C(C=C4)F)Cl [VX-11e] + COc1cccc2cc(-c3nc([C@H]4CC[C@H](C(=O)O)CC4)n4ncnc(N)c34)[nH]c12 [OSI-027] (partner 0.5 µM)
How it was run: as §1

VX-11e + Tozasertib = compound: CC1=CN=C(N=C1C2=CNC(=C2)C(=O)N[C@H](CO)C3=CC(=CC=C3)Cl)NC4=C(C=C(C=C4)F)Cl [VX-11e] + Cc1cc(Nc2cc(N3CCN(C)CC3)nc(Sc3ccc(NC(=O)C4CC4)cc3)n2)n[nH]1 [Tozasertib] (partner 0.1 µM)
How it was run: as §1

A549 was tested, and the relative viability (VX-11e + Pictilisib; first compound 0.04 µM) was 0.481, the relative viability (VX-11e + Pictilisib; first compound 0.1265 µM) was 0.475 and the relative viability (VX-11e + Pictilisib; first compound 0.4 µM) was 0.316. The relative viability (VX-11e + Pictilisib; first compound 1.265 µM) was 0.0889, the relative viability (VX-11e + Pictilisib; first compound 4 µM) was 0.0408 and the relative viability (VX-11e + Decitabine; first compound 0.1265 µM) was 0.264. It also gave a relative viability (VX-11e + Decitabine; first compound 0.4 µM) of 0.0929, a relative viability (VX-11e + Decitabine; first compound 1.265 µM) of 0.249 and a relative viability (VX-11e + Decitabine; first compound 4 µM) of 0.202. It also gave a relative viability (VX-11e + Crizotinib; first compound 0.04 µM) of 0.826, a relative viability (VX-11e + Crizotinib; first compound 0.1265 µM) of 0.786 and a relative viability (VX-11e + Crizotinib; first compound 0.4 µM) of 0.601. For the same cell line, the relative viability (VX-11e + Crizotinib; first compound 1.265 µM) was 0.207, the relative viability (VX-11e + Crizotinib; first compound 4 µM) was 0.0915 and the relative viability (VX-11e + Alpelisib; first compound 0.04 µM) was 0.737. It also gave a relative viability (VX-11e + Alpelisib; first compound 0.1265 µM) of 0.622, a relative viability (VX-11e + Alpelisib; first compound 0.4 µM) of 0.451 and a relative viability (VX-11e + Alpelisib; first compound 1.265 µM) of 0.313. The relative viability (VX-11e + Alpelisib; first compound 4 µM) was 0.0519, the relative viability (VX-11e + Phenformin; first compound 0.04 µM) was 0.151 and the relative viability (VX-11e + Phenformin; first compound 0.1265 µM) was 0.155. For the same cell line, the relative viability (VX-11e + Phenformin; first compound 0.4 µM) was 0.0307, the relative viability (VX-11e + Phenformin; first compound 1.265 µM) was 0.279 and the relative viability (VX-11e + Phenformin; first compound 4 µM) was 0.0557. It also gave a relative viability (VX-11e + Lapatinib; first compound 0.04 µM) of 0.898, a relative viability (VX-11e + Lapatinib; first compound 0.1265 µM) of 0.903 and a relative viability (VX-11e + Lapatinib; first compound 0.4 µM) of 0.832. The relative viability (VX-11e + Lapatinib; first compound 1.265 µM) was 0.211, the relative viability (VX-11e + Lapatinib; first compound 4 µM) was 0.135 and the relative viability (VX-11e + Olaparib; first compound 0.04 µM) was 0.237. For the same cell line, the relative viability (VX-11e + Olaparib; first compound 0.1265 µM) was 0.246, the relative viability (VX-11e + Olaparib; first compound 0.4 µM) was 0.0406 and the relative viability (VX-11e + Olaparib; first compound 1.265 µM) was 0.184. It also gave a relative viability (VX-11e + Olaparib; first compound 4 µM) of 0.0866, a relative viability (VX-11e + Navitoclax; first compound 0.04 µM) of 1.22 and a relative viability (VX-11e + Navitoclax; first compound 0.1265 µM) of 1.11. For the same cell line, the relative viability (VX-11e + Navitoclax; first compound 0.4 µM) was 0.984, the relative viability (VX-11e + Navitoclax; first compound 1.265 µM) was 0.257 and the relative viability (VX-11e + Navitoclax; first compound 4 µM) was 0.111. It also gave a relative viability (VX-11e + Foretinib; first compound 0.04 µM) of 1.02, a relative viability (VX-11e + Foretinib; first compound 0.1265 µM) of 0.973 and a relative viability (VX-11e + Foretinib; first compound 0.4 µM) of 0.922. It also gave a relative viability (VX-11e + Foretinib; first compound 1.265 µM) of 0.321, a relative viability (VX-11e + Foretinib; first compound 4 µM) of 0.0913 and a relative viability (VX-11e + Linsitinib; first compound 0.04 µM) of 0.548. It also gave a relative viability (VX-11e + Linsitinib; first compound 0.1265 µM) of 0.485, a relative viability (VX-11e + Linsitinib; first compound 0.4 µM) of 0.448 and a relative viability (VX-11e + Linsitinib; first compound 1.265 µM) of 0.31. For the same cell line, the relative viability (VX-11e + Linsitinib; first compound 4 µM) was 0.169, the relative viability (VX-11e; 0.04 µM) was 0.98 and the relative viability (VX-11e; 0.1265 µM) was 0.868. For the same cell line, the relative viability (VX-11e; 0.4 µM) was 0.806, the relative viability (VX-11e; 1.265 µM) was 0.671 and the relative viability (VX-11e; 4 µM) was 0.122.

Cell Line NCI-H1623 has a relative viability (VX-11e + Luminespib; first compound 0.04 µM) of 0.434, a relative viability (VX-11e + Luminespib; first compound 0.1265 µM) of 0.492 and a relative viability (VX-11e + Luminespib; first compound 0.4 µM) of 0.3. It also gave a relative viability (VX-11e + Luminespib; first compound 1.265 µM) of 0.48, a relative viability (VX-11e + Luminespib; first compound 4 µM) of 0.337 and a relative viability (VX-11e + Dasatinib; first compound 0.04 µM) of 0.526. The relative viability (VX-11e + Dasatinib; first compound 0.1265 µM) was 0.624, the relative viability (VX-11e + Dasatinib; first compound 0.4 µM) was 0.369 and the relative viability (VX-11e + Dasatinib; first compound 1.265 µM) was 0.457. The relative viability (VX-11e + Dasatinib; first compound 4 µM) was 0.398, the relative viability (VX-11e + Phenformin; first compound 0.04 µM) was 0.53 and the relative viability (VX-11e + Phenformin; first compound 0.1265 µM) was 0.623. For the same cell line, the relative viability (VX-11e + Phenformin; first compound 0.4 µM) was 0.433, the relative viability (VX-11e + Phenformin; first compound 1.265 µM) was 0.546 and the relative viability (VX-11e + Phenformin; first compound 4 µM) was 0.409. The relative viability (VX-11e + OSI-027; first compound 0.04 µM) was 0.43, the relative viability (VX-11e + OSI-027; first compound 0.1265 µM) was 0.446 and the relative viability (VX-11e + OSI-027; first compound 0.4 µM) was 0.423. For the same cell line, the relative viability (VX-11e + OSI-027; first compound 1.265 µM) was 0.307, the relative viability (VX-11e + OSI-027; first compound 4 µM) was 0.278 and the relative viability (VX-11e + Foretinib; first compound 0.04 µM) was 0.856. For the same cell line, the relative viability (VX-11e + Foretinib; first compound 0.1265 µM) was 0.934, the relative viability (VX-11e + Foretinib; first compound 0.4 µM) was 0.588 and the relative viability (VX-11e + Foretinib; first compound 1.265 µM) was 0.619. The relative viability (VX-11e + Foretinib; first compound 4 µM) was 0.473, the relative viability (VX-11e + Tozasertib; first compound 0.04 µM) was 0.396 and the relative viability (VX-11e + Tozasertib; first compound 0.1265 µM) was 0.426. It also gave a relative viability (VX-11e + Tozasertib; first compound 0.4 µM) of 0.418, a relative viability (VX-11e + Tozasertib; first compound 1.265 µM) of 0.38 and a relative viability (VX-11e + Tozasertib; first compound 4 µM) of 0.23. It also gave a relative viability (VX-11e; 0.04 µM) of 0.967, a relative viability (VX-11e; 0.1265 µM) of 1.04 and a relative viability (VX-11e; 0.4 µM) of 0.724. For the same cell line, the relative viability (VX-11e; 1.265 µM) was 0.678 and the relative viability (VX-11e; 4 µM) was 0.561.

Reference: the supplement of paper PMC10307832
